Calls of active or inactive are those of the source. The rule behind the calls is not given here.
Tests used:
Mus musculus = assay: Antiangiogenic activity in EAT cells xenografted in Mus musculus Swiss albino (mouse) assessed as reduction in vasculaization in peritoneal cavity drug administered on day 7,9 and 11 after tumor transplantation; assay type: functional, organism-based
[1] = Antitumor activity against Mus musculus (mouse) EAT cells xenografted in Mus musculus Swiss albino (mouse) assessed as reduction in ascites volume drug administered on day 7,9 and 11 after tumor transplantation […]; assay type: functional
EAT [2] = assay: Antitumor activity against Mus musculus (mouse) EAT cells xenografted in Mus musculus Swiss albino (mouse) assessed as decrease in tumor burden measured as reduction in body weight drug administered on day 7,9 and 11 after tumor transplantation; assay type: functional, cell-based
EAT [3] = assay: Antitumor activity against Mus musculus (mouse) EAT cells xenografted in Mus musculus Swiss albino (mouse) assessed as decrease in cell viability drug administered on day 7,9 and 11 after tumor transplantation; assay type: functional, cell-based
HepG2 [4] = assay: Induction of apoptosis in Homo sapiens (human) HepG2 cells assessed as DNA fragmentation at 10 uM after 24 hr by agarose gel electrophoresis; assay type: functional, cell-based
EAT [5] = assay: Induction of apoptosis in Mus musculus (mouse) EAT cells xenografted in Mus musculus Swiss albino (mouse) assessed as DNA fragmentation drug administered on day 7,9 and 11 after tumor transplantation by agarose gel electrophoresis; assay type: functional, cell-based
EAT [6] = assay: Induction of apoptosis in Mus musculus (mouse) EAT cells xenografted in Mus musculus Swiss albino (mouse) assessed as appearance of condensed nuclei, membrane blebbing and formation of apoptotic bodies drug administered on day 7,9 and 11 after tumor transplantation by Giemsa, ethidium bromide/acridine orange staining analysis; assay type: functional, cell-based
HepG2 [7] = assay: Antiproliferative activity against Homo sapiens (human) HepG2 cells after 48 hr by MTT assay; assay type: functional, cell-based; conditions: HepG2, 48 h
HeLa = assay: Antiproliferative activity against Homo sapiens (human) HeLa cells after 48 hr by MTT assay; assay type: functional, cell-based

SMILES | inhibition (Mus musculus) | inhibition (INH) [1] | inhibition (EAT [2]) | inhibition (EAT [3]) | Activity (HepG2 [4]) | Activity (EAT [5]) | Activity (EAT [6]) | IC50 (HepG2 [7]) | IC50 (HeLa)
O=C1/C(=C/c2ccc(F)cc2)CC/C1=C\c1ccc(F)cc1 | Active | 70% | Active | Active | Active | Active | Active | 48 µM | 39 µM
COc1ccc(/C=C2\CC/C(=C\c3ccc(OC)c(OC)c3)C2=O)cc1OC | Active | 70% | Active | Active | Active | Active | Active | 106 µM | 110 µM
COc1cc(/C=C2\CC/C(=C\c3ccc(O)c(OC)c3)C2=O)ccc1O | Active | 70% | Active | Active | Active | Active | Active | 44 µM | 42 µM

From ChEMBL document CHEMBL3045940, “In vivo peritoneal antiangiogenesis and in vitro antiproliferative properties of some bischalcone derivatives” (Med Chem Res, 2012)
